Experimental data published in US20050089583A1, “Novel herbal composition for the treatment of gastric ulcer” (priority 2003, published 2005).

What was measured:
[1] = tested on: aspirin induced gastric ulcer; experiment: Aspirin induced gastric ulcer model; format: in vivo, rats
Excerpt: (§1) The following arbitrary scoring system was used to grade the severity and intensity of the lesions. • 1. Shedding of epithelium=10 • 2. Petechial and frank hemorrhages=20 • 3. One or two ulcers=30 • 4. More than two ulcers=40 • 5. Perforated ulcers=50 The presence of any of these lesions was considered as a positive ulcerogenic response which has been shown as percentage of rats showing gastric lesions.
(§2) The severity of ulcers is expressed in terms of ulcer index, which is the mean score of gastric lesions of all the rats in a group which is defined as: • Ulcer Index (U. I.)=Us+Up×10^−1 • Where Us=Mean severity of ulcer score and Up-Percentage of animals with Ulcer incidences.
(§3) The percentage protection is calculated as follows: • Percentage protection ═(C-T/C)×100. • Wherein • C=Number of animals showing ulcer response in control group and • T=Number of animals showing ulcer response in test group.
Method: Gastric ulceration was induced by aspirin according to the method of Djahanguiri (1969). Aspirin (150 mg/Kg.) was administered per orally as a suspension in gum-acacia and the animal was sacrificed 5 hr. after the aspirin treatment and the ulcer index with protection index were calculated.

Histamine induced ulcer = Histamine induced ulcer model; format: in vivo, guinea pig; conditions: HF2 50 mg/Kg p.o., Omeprazole 10 mg/kg p.o.
Experimental: Method: Animals were fasted for 24 hours with access to water. The drug was given orally 1 hour prior to the histamine administration. Histamine was administered in a dose of 0.25 mg/Kg, i.m. at 30 minutes interval-for 7 times and it induced 100% duodenal ulceration in guinea pig (According to the method of Watt and Eagleton 1964)^4. The animals were sacrificed after half an hour of last injection under ether anesthesia. The stomach along with duodenum was removed washed thoroughly and examined for the lesions and ulcer index with protection index was calculated. The effect of the herbal composition “HF2” and the standard drug “Omeprazole” against Histamine induced ulcer model is given in Table 4.

[2] = tested on: Cold Restraint Ulcers (CRU); experiment: Cold restraint ulcer (CRU) model; format: in vivo, rats
Experimental: Method: Adult rats of either sex, weighing 150-175 Gms were fasted for 24 hours with free access to water. The test drugs were administered 45 minutes before immobilizing the animals. The rats were immobilized in the restraint cage at 4° C. in BOD incubator for 2 hrs and were sacrificed immediately after the restraint period. (According to the method of Senay and Levine 1967). The abdomen was cut opened; stomach was taken out and incised along the greater curvature to observe the gastric lesions with the help of Magnascope (5× magnification).
as §1, §2, §3

[3] = HF 2 100 mg/Kg p.o., Omeprazole 10 mg/Kg p.o.

## COc1ccc2[nH]c([S+]([O-])Cc3ncc(C)c(OC)c3C)nc2c1 (stereo not shown) [Omeprazole]
[1]
  protection against aspirin induced ulcer model: 39.41%
[1]; Aspirin 150 mg/Kg p.o., HF 2 100 mg/Kg p.o., Omeprazole 10 mg/Kg p.o.
  Ulcer severity (type of lesions) score 20 (No. of rats showing lesions/No. of rats tested): 2/6
[1]; Aspirin 150 mg/Kg p.o., HF 2 100 mg/Kg p.o., Omeprazole 10 mg/Kg p.o., 5 hr
  Ulcer severity (type of lesions) score 10 (No. of rats showing lesions/No. of rats tested): 2/6
[1]; [3]
  Mean severity of ulcer score: 10.0
  Percentage of ulcer incidence: 66.7%
  Protection index: 39.41
  Ulcer index: 7.67
Histamine induced ulcer
  Percentage of ulcer incidence: 33.3%
Histamine induced ulcer; Histamine 0.25 mg/Kg i.m. × 7
  Ulcer severity (type of lesions) score 20 (No. Guinea pig showing lesions/No. of Guinea pig tested): 1/3
[2]
  protection against cold restraint ulcer model: 54.03%
[2]; HF2 50 mg/Kg p.o., Omeprazole 10 mg/Kg p.o.
  Percentage of ulcer incidence: 50%
[2]; score 10 = shedding of epithelium, HF2 50 mg/Kg p.o., Omeprazole 10 mg/Kg p.o., 4° C., 2 hrs restraint
  Ulcer severity (type of lesions) score 10 (No. of rats showing lesions/No. of rats tested): 3/10
[2]; score 20 = petechial and frank hemorrhages, HF2 50 mg/Kg p.o., Omeprazole 10 mg/Kg p.o.
  Ulcer severity (type of lesions) score 20 (No. of rats showing lesions/No. of rats tested): 2/10
